Where two headings read alike, the source gives them in different places.
How the values were obtained:
[1] = Blood–brain barrier permeation assay (PAMPA); conditions: for PAMPA Prediction: BBB permeability class from Pe
Procedure: (§7) Briefly, permeability of the compounds was measured at an initial concentration of 100 µM, including positive and negative controls (Supplementary Data; Table S3). […] After 5 min, 180 µL of each compound solution in PBS (10 mM, pH 7.4) was added to determine their ability to pass the membrane (VD). The 96-well acceptor plate (Multiscreen, Millipore Corp., Madrid Spain) was loaded with 180 µL of PBS (VA). Then, the donor filter plate was carefully placed on the acceptor plate to form a sandwich-like system, which was left undisturbed for 4 h at room temperature. After incubation, the donor plate was removed and the absorbance at the maximum absorption wavelength for each compound was recorded in both the acceptor and donor wells (150 µL/well) using a UV plate reader SPECTROstar Nano (BMG Labtech, Ortenberg, Germany). Concentration of the compounds in the donor and acceptor plates and equilibrium concentration were calculated and expressed as permeability (Pe) according the Equation (1). Results are expressed as mean ± standard error of the mean (SEM) of at least three different experiments in duplicate:(1) logPe =log{C×−ln(1−[drug]acceptor/[drug]equilibrium)} where C=(VD×VA/(VD +VA)×Area×Time) .

hrMAO-A = molecular target: T1, hrMAO-A (Homo sapiens, UniProt P21397); assay: Inhibition of monoamine oxidase A (Amplex UltraRed, tyramine); format: biochemical
T1 construct: purchased Sigma–Aldrich
T1 sequence (P21397 1-527): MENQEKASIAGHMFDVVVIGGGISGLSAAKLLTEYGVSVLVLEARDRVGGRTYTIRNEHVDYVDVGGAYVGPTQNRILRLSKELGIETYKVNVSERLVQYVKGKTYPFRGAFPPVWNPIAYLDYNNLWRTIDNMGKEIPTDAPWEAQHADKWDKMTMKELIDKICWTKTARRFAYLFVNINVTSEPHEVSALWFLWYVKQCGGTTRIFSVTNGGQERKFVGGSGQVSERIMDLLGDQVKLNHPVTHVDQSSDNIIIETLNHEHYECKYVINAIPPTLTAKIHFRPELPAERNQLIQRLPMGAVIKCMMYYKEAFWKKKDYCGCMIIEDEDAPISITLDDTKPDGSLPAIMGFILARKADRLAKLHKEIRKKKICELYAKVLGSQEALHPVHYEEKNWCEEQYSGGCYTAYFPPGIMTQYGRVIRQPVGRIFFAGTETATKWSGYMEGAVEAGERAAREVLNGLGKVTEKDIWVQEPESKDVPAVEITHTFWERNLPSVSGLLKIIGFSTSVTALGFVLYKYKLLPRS

SH-SY5Y cells [2] = assay: Neuroprotection in SH-SY5Y against 6-hydroxydopamine (MTT); format: cell-based, human; conditions: 6-OHDA 100 µM; compound 0.1 µM, 24 h pre- and 24 h co-incubation
Procedure: (§1) Cells were seeded at a density of 60,000 cells/well in 96-well transparent plates for 24 h. Then cells were pre-incubated with the corresponding compound at 0.1 μM. After 24 h, the medium was removed and replaced with 1% (v/v) FBS media containing the corresponding compound at 0.1 µM and the selected toxic stimuli, namely a mixture of rotenone and oligomycin A (R/O; 30/10 μM, respectively; Sigma–Aldrich, Spain) or 6-hydroxydopamine (100 µM; Sigma–Aldrich, Spain). […].

MAO-B = molecular target: T2, MAO-B (Homo sapiens, UniProt P27338); assay: MAO-B reversibility assay (pre-incubation times); format: biochemical; conditions: 0, 15, 30 min pre-incubation at […] IC50
T2 construct: purchased Sigma–Aldrich
T2 sequence (P27338 1-520): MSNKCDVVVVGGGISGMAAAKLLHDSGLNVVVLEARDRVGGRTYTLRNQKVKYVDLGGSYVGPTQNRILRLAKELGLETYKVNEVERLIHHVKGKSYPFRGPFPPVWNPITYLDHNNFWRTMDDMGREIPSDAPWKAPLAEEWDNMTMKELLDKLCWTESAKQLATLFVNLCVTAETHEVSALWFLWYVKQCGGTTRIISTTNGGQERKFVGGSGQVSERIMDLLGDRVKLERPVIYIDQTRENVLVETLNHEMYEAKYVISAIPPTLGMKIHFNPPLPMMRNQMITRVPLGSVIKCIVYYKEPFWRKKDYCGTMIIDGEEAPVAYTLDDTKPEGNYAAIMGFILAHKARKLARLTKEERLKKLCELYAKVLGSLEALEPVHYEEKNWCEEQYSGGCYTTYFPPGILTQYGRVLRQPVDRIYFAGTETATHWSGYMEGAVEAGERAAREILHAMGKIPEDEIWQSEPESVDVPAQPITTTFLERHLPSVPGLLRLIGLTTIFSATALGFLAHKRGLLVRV

SH-SY5Y = conditions: MTT reduction
Procedure: They were recovered by centrifugation at 800 rpm for 10 min. Cells from the third to twelfth passage were seeded at a density of 80,000 cells/well in 96-well plates for the neuroprotection studies.
(§2) Basal absorbance was set to 100% and results were normalized to basal conditions.
(§3) Cytotoxicity. LD50 values in several cell cultures employed
(§4) Table S2. Cytotoxicity elicited by 10-18 compounds in SH-SY5Y, AREc32 and mixed pr imary glial cultures. Viability was measured as MTT reduction in presence of increasing concentrations of der ivatives. LD50 values were calcula ted from dose-response curves. Data are expr essed as mean ± SEM of at least 3 independent experiments.
(§5) 1.3. PAMPA control compounds (BBB permeability)
(§6) Table S3. Pr ediction of the BBB passive permeability of control compounds

hrMAO-B = molecular target: T3, hrMAO-B (Homo sapiens, UniProt P27338); assay: Inhibition of monoamine oxidase B (Amplex UltraRed, tyramine); format: biochemical; conditions: for Selectivity Index (MAO-A/MAO-B): ratio IC50 MAO-A/IC50 MAO-B
T3 construct: purchased Sigma–Aldrich
T3 sequence (P27338 1-520): T2 sequence (P27338 1-520)

[3] = system: Mixed primary glial cultures; assay: Cytotoxicity in mixed primary glial cultures (MTT); conditions: MTT reduction
Procedure: Mixed primary glial cultures were obtained from cerebral cortex of 2–5-day-old Sprague–Dawley rats. Blood vessels and meninges were first removed in Hank’s balanced salt solution (HBSS) and then forebrains were dissociated in DMEM/F12 medium. After mechanical dissociation, filtering, and centrifugation at 800 rpm for 10 min, cells were plated at a density of 30,000 cells/well in DMEM/F12 medium with 20% (v/v) FBS and 1% penicillin/streptomycin (10,000 units). […] After 5 days, medium was substituted by DMEM/F12 medium with 10% (v/v) FBS. Cells were cultured for 7–10 days before treatment.
as §2, §3, §4, §5, §6

SH-SY5Y cells [4] = assay: Neuroprotection in SH-SY5Y against rotenone/oligomycin A (MTT); format: cell-based, human; conditions: compound 0.1 µM, 24 h pre- and 24 h co-incubation
Procedure: as §1

NRF2 = NRF2 induction, luciferase activity in AREc32 reporter cells; format: cell-based, human; conditions: for fold potentiation of NRF2 induction compared to the corresponding -OMe derivative: 11, 12 vs 10, 14, 15 vs 13; for EC50: Homo sapiens, read-out: CD (µM) NRF2 Induction; for EC50 / CD (µM) NRF2 Induction: AREc32 cells, 24 h, concentration required to double luciferase activity compared to basal
Procedure: Cells were used from the third to twelfth passage.
AREc32 cells were stably transfected with the plasmid pGL-8xARE that implements 8 copies of the antioxidant response element (ARE) sequences followed by luciferase reporter gen. Therefore, NRF2 induction can be related to the activation of ARE sequences by measuring luciferase activity in terms of luminescence production. For NRF2 induction experiments, cells were plated in 96 white flat bottom well plates (20,000 cells/well). After 24 h, cells were incubated with selected compounds at the desired concentrations in duplicates for 24 h. The Luciferase Assay System (Promega E1500) was used according to provider protocol and luminescence was quantified in an Orion II microplate luminometer (Berthold, Germany). Fold induction of luciferase activity was normalized to basal conditions. Data were expressed as CD values, which means the concentration needed to duplicate the luciferase activity compared to basal conditions. CD values were calculated from dose–response curves fitted by non-linear regression for each compound after logarithmic transformation of the data using GraphPad Prism 8.0 software.

[5] = system: blood-brain barrier (passive diffusion); assay: in vitro; conditions: PAMPA, pH 7.4
Procedure: as §7

AREc32 = conditions: MTT reduction
Procedure: AREc32 cells, shared by CR Wolf, were grown in Dulbecco’s modified Eagle medium (DMEM) with GlutaMAX (Gibco, Invitrogen, Madrid, Spain), supplemented with 10% (v/v) filtrated fetal bovine serum (FBS; Gibco, Invitrogen, Madrid, Spain), 1% of antibiotics penicillin-streptomycin, and geneticin (0.8 mg/mL G418; Gibco, Invitrogen, Madrid, Spain). […] They were recovered by centrifugation at 800 rpm for 10 min. Cells were used from the third to twelfth passage.
as §2, §3, §4, §5, §6

[6] = system: blood-brain barrier (passive diffusion); assay: Blood–brain barrier permeation assay (PAMPA); conditions: PAMPA, pH 7.4
Procedure: as §7

[7] = Oxygen radical absorbance capacity (ORAC) assay; conditions: Trolox equivalents; AAPH, fluorescein
Procedure: The ORAC test was performed to evaluate the oxygen free radical scavenger capacity of the compounds. […] Compounds at desired concentrations (0.03, 0.1, 0.3, 1, 3, and 10 µM) were diluted in phosphate-buffered saline (PBS; 10 mM, pH 7.4) at 37 °C and placed in a 96 black flat bottom well plate. […] A fluorescence measurement was done first to determine the basal signal. Then, 25 µL of 2, 2′-azobis-amidinopropane dihydrochloride (AAPH) (12 mM final concentration) was quickly added. All samples were measured in duplicates in three different experiments. […] Results were expressed in terms of Trolox equivalents (T.eq.), obtained by plotting net AUC versus compound concentration, then performing linear regression and normalizing slopes of the compounds considering Trolox as reference.

[8] = 30 min pre-incubation, 37 °C, read-out: IC50 MAO-A
[9] = 30 min pre-incubation, 37 °C, read-out: IC50 MAO-B

Row | SMILES | PAMPA Prediction [1] | IC50 (hrMAO-A) | 6-OHDA Protection (%) (SH-SY5Y cells [2]) | MAO-B inhibition reversibility (MAO-B) | LD50 (µM) SH-SY5Y (SH-SY5Y) | IC50 (hrMAO-B) | LD50 (µM) Mixed primary glial cultures [3] | R/O (30/10 µM) Protection (%) (SH-SY5Y cells [4]) | fold potentiation of NRF2 induction compared to the corresponding -OMe derivative (NRF2) | EC50 (NRF2) | Papp [5] | LD50 (µM) AREc32 (AREc32) | IC50 (hrMAO-A; [8]) | IC50 (hrMAO-B; [9]) | PAMPA Pe (10^−6 cm s^−1) ([1]; 100 µM, porcine brain lipid, 4 h, PBS pH 7.4) | Papp at 4 h, 100 µM [6] | MAO isozyme selectivity (hrMAO-B; MAO-B vs MAO-A) | Selectivity Index (MAO-A/MAO-B) (hrMAO-B) | ORAC (T. eq.) [7] | CD (µM) NRF2 Induction (NRF2)
1 | Cn1c(=O)c2c(ncn2C)n(C)c1=O [Caffeine, reference compound] | CNS - | – | – | – | – | – | – | – | – | – | – | – | – | – | – | – | – | – | – | –
2 | C#CCNCCc1c[nH]c2ccc(OC(=O)C=Cc3ccccc3)cc12 [Compound 11, 3-(2-(Prop-2-yn-1-ylamino)ethyl)-1H-indol-5-yl Cinnamate] | CNS + (CNS + (high BBB permeability): Pe (10^−6 cm s^−1) > 4.0) | 43.8 ± 6.5 µM | absence of protection | reversible inhibition | 16.4 ± 2.32 µM | 3 ± 0.21 µM | 17.8 ± 2.9 µM | 48.6% | 7 fold | 1.8 ± 0.28 µM | 5.08 ± 1.7 ×10⁻⁶ cm/s | 7.83 ± 1.2 µM | – | – | – | – | – | – | – | –
3 | C#CCNCCc1c[nH]c2ccc(OC(=O)/C=C/c3ccc(C)cc3)cc12 [Compound 12, 3-(2-(Prop-2-yn-1-ylamino)ethyl)-1H-indol-5-yl-(E)-3-(p-tolyl)acrylate] | CNS − (CNS—(low BBB permeability): Pe (10^−6 cm s^−1) < 2.0) | – | absence of protection | – | 11.6 ± 0.90 µM | – | 7.42 ± 1.3 µM | 53.5% | 10 fold | 2.99 ± 0.26 µM | – | 11.1 ± 2.0 µM | 59.1 ± 6 µM | 3.03 ± 0.27 µM | low Pe value | 1.84 ± 0.48 ×10⁻⁶ cm/s | – | – | – | –
4 | C#CC(=O)NCCc1c[nH]c2ccc(OC)cc12 [Compound 16, N-(2-(5-Methoxy-1H-indol-3-yl)ethyl) Propiolamide] | CNS + (CNS + (high BBB permeability): Pe (10^−6 cm s^−1) > 4.0) | – | 48.1% | – | 4.87 ± 0.60 µM | – | 8.81 ± 2.2 µM | 47.3% | – | 1.35 ± 0.12 µM | – | – | > 100 µM | > 100 µM | – | 6.64 ± 1.3 ×10⁻⁶ cm/s | not active | at least 2 | 2.67 ± 0.14 T. eq. | –
5 | C#CC(=O)NCCc1c[nH]c2ccc(OC(=O)C=Cc3ccccc3)cc12 [Compound 17, 3-(2-Propiolamidoethyl)-1H-indol-5-yl Cinnamate] | – | – | 58.4% | reversible inhibition | 9.06 ± 0.31 µM | – | – | 49.3% | – | – | – | < 1 µM | > 100 µM | 50 ± 2.9 µM | – | 3.12 ± 1.2 ×10⁻⁶ cm/s | – | – | 2.27 ± 0.08 T. eq. | no activity
6 | C#CC(=O)NCCc1c[nH]c2ccc(OC(=O)/C=C/c3ccc(C)cc3)cc12 [Compound 18, 3-(2-Propiolamidoethyl)-1H-indol-5-yl-(E)-3-(p-tolyl) Acrylate] | – | – | 43.8% | – | – | – | 1.21 ± 0.24 µM | 32.1% | – | – | – | < 1 µM | 81.9 ± 5.4 µM | 13.9 ± 1.2 µM | – | 2.04 ± 3.2 ×10⁻⁶ cm/s | – | 5.89 | 1.42 ± 0.13 T. eq. | no activity
7 | CC(C)(C)c1cc(O)ccc1O [TBHQ, Tert-Butylhydroquinone, reference compound] | – | – | – | – | – | – | – | – | – | 1.82 ± 0.09 µM | – | – | – | – | – | – | – | – | – | –

From PMC8868346, “Novel Series of Dual NRF2 Inducers and Selective MAO-B Inhibitors for the Treatment of Parkinson’s Disease” (Antioxidants, 2022)
